SMILES strings stand for the structures. Structures can show the parent of a compound that is named as a salt.

Eight compounds from patent US20250073338A1, “CONJUGATE COMPOUNDS AND COMPOSITIONS” (REZUBIO PHARMACEUTICALS CO., LTD, priority 2023, published 2025) can be followed below.

For one series, the target named is T1, GPR40 (Homo sapiens, UniProt O14842).
T1 construct: expressed in transfected cells
Description: IP1 accumulation assay in HEK293 cells stably expressing GPR40. To be noted: HEK293 cells stably expressing GPR40, 2 hours at 37° C. Type of series: cell-based. As to the method:
IP1 accumulation assay was used to evaluate the potency of compounds. HEK293 cells stably expressing GPR40 were cultured in 5% CO2 incubator (ThermoFisher) in maintenance media (Dulbecco's modified Eagle's medium with 4.5 g/L of glucose, 10% fetal bovine serum, 100 μg/mL Hygromycin, and Penicillin (100 U/mL)/Streptomycin (100 μg/mL)) till 100% confluency. Cells were harvested freshly, spun down at 300× g for 5 min, and resuspended in pre-warmed 1× stimulant buffer from Cisbio IP-One HTRF Detection kit (Cisbio). Cell density was adjusted to 2.0×10^6 cells/mL. DMSO was used as blank control and AMG-1638 (CAS #: 1142214-62-7) as positive control. Compounds were prepared at 10 mM in DMSO and 5 nL of 3× serially diluted compounds (10 concentrations) were added to each well of the 384-LDV assay plate (Corning) by using ECHO 550 (Labcyte). Five μL of cells in suspension were transferred into each well by using Multidrop Combi Reagent Dispenser (ThermoFisher). Assay plate was then sealed and incubated at 37° C. for 2 hours. IP-d2 reagent and anti-IP1 reagent were prepared following the manual (Cisbio). Five μL of IP1-d2 and then 5 μL of anti-IP1 antibody was added to each well sequentially. Assay plate was incubated at room temperature for 60 min and then read at 665 nm/615 nm on an Envision plate reader (PerkinElmer). The ratio of values obtained at 665 nm and 615 nm was used for calculation of IP1 accumulation: % Effect=(Ratiosample−Ratioblank)/(RatioAMG-1638−Ratioblank)×100. Dose curve was fitted and EC50 of each compound was calculated by using XLFit.

The subject of another series is C57BL/6 mice. Briefly: oGTT study (oral glucose tolerance test). Type of series: in vivo, Male C57BL/6 mice. To be noted: 30 mpk oral gavage, blood glucose AUC 0-120 minutes after 5 g/kg glucose challenge. As to the method:
(§1) Male C57BL/6 mice were purchased from Zhejiang Vital River Laboratories Co., Ltd (a branch of Charles River Laboratories) at around 7-8 weeks of age (n=8). Animal were kept under regular light/dark cycle (12 h light: 12 h dark, L^D) at room temperature and fed regular chow diet and tap water ad libitum in facility for more than one week. On study day, animals were fasted by removing food at 7:00 AM. Blood glucose was measured at 9:00 AM by a glucometer (Roche) via tail bleeding and mice were sorted to groups of treatment based on average blood glucose (˜[…]). The vehicle (0.5% methylcellulose) or exemplary compounds solutions (30 mpk dose) were mixed well and dosed by oral gavage (dosing volume=10 ml/kg body weight). At 1:00 PM, blood glucose was measured by a glucometer (0 min). Animals were then PO dosed with 5 g/kg glucose for oral glucose challenge. Blood glucose was then measured at 20, 40, 60, and 120 min by glucometer. At the end of study, 50 μl tail blood from treatment groups were collected and mixed with 4% sodium citrate (vol 9:1). Tubes were centrifuged in a benchtop centrifuge for 10 min at 8,000 RPM at 4° C. Plasma samples were separated and stored in −80° C. freezer for measurements of PK by LC-MS/MS.

A short description of series [1]: Pharmacokinetics in mice (IV and PO), plasma LC-MS/MS. Format: in vivo, Male ICR (CD-1) mice. Conditions: for Cl / AUC / half-life / Vd: IV (1 mpk); for AUC / half-life / Vd / Cmax / Tmax / bioavailability: male, ICR (CD-1), mouse, plasma; for AUC / half-life / Vd: 1 mg/kg; for half-life: read-out: T½ (converted); for Vd: read-out: Vss; for Cmax / Tmax / bioavailability: 10 mg/kg, PO (10 mpk); for bioavailability: oral bioavailability. As to the method: Male ICR (CD-1) mice at around 4-6 weeks with body weight of around 25 grams (n=3) were purchased from VT-River (Zhejiang, China). After 1-week acclimation, animals were dosed with exemplary compounds intravenously at 1 mpk or orally at 10 mpk (0.5% methylcellulose in PBS as vehicle for both routes of administration). Blood samples (30 μL) were collected via saphenous vein puncture at 5 (IV only), 15, 30, 60, 120, 240, 480, and 1440 min post dose. The blood samples were saved in 0.5 M K2EDTA coated tubes and centrifuged at 4,600 rpm at 4° C. for 5 min. Plasma samples were collected and stored in −80° C. till PK analysis.
Take 10 μL of K2EDTA-treated plasma samples of CD-1 mice, add 200 μL of precipitation solution with internal standard (5 ng/mL Terfenadine in MeOH/ACN), mix well by vortexing for 1 min at room temperature followed by centrifuge at 4° C. and 4000 rpm for 15 min. Save the supernatant as injection for LC-MS/MS quantification of exemplary compounds in plasma samples of mice.
Establish a standard curve before and after each analytical batch, accompanied by quality controls of low, medium, and high concentrations. The number of quality control samples is not less than 6 and should be equal to or more than the number of samples of each batch, and interspersed in sample measurement. Standard curve and quality control samples of each batch must meet the acceptance criteria.

A short description of series [2]: Plasma drug concentration at end of oGTT study by LC-MS/MS. Type of series: in vivo, Male C57BL/6 mice. Conditions: male, C57BL/6, mouse, 30 mpk oral, 6 h post dose, read-out: Drug conc. The method, then:
as §1

T1 sequence (O14842 whole entry): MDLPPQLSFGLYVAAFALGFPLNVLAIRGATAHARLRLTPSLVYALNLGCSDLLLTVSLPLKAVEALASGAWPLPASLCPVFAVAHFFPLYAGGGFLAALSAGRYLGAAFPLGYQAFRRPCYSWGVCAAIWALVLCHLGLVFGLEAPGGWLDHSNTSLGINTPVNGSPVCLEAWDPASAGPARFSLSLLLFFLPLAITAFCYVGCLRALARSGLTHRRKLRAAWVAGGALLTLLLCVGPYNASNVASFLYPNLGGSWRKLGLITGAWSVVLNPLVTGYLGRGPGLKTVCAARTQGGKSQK

The term EC50 denotes the concentration giving half of the maximal effect. Lower therefore signals a more potent agent. The AUC is the area under the concentration-time curve, a measure of exposure. The low end stands for less exposure, the high end for more exposure. Broadly, the Cmax is the highest concentration seen after dosing. Usually Tmax stands for the time from dosing to the highest level. A word on the bioavailability: it is dose-corrected exposure relative to a reference, in per cent. A low value points to poor availability. Take `COc1ccc(C(=O)N(CC(C)(C)CCCCCCCCCCCCCCCCCC(=O)NCCC[N+]23CC[N+](C)(CC2)CC3)c2cccc(C)n2)c(N2CCC(COc3cc([C@@H](CC(=O)O)C4CC4)ccn3)CC2)c1` [Example 19]: the EC50 on GPR40 amounted to 0.07 nM. In addition, the “% change in AUC over vehicle” value in the series on C57BL/6 mice is on record as −29.7%. Besides, in series [1], the Cl is 0.43 ml/mL/kg, the AUC worked out at 28.5 µM·h, the half-life was 4.7 h and the Vd worked out at 0.11 L/kg. Further, in series [1], the concentration peaked (Cmax) at 77 nM, the Tmax was found to be 4 h and the bioavailability came out at 0.31%. In addition, the concentration at 6 h in series [2] came out at 347 ± 125 ng/mL.

In turn, `COc1ccc(C(=O)N(CC(C)(C)CCCCCCCCCCCCCCCCCCCCCC[N+]23CCN(CC2)CC3)c2cccc(C)n2)c(N2CCC(COc3cc([C@@H](CC(=O)O)C4CC4)ccn3)CC2)c1` [Example 21, (S)-1-(24-(2-(4-(((4-(2-carboxy-1-cyclopropylethyl)pyridin-2-yl)oxy)methyl)piperidin-1-yl)-4-methoxy-N-(6-methylpyridin-2-yl)benzamido)-23,23-dimethyltetracosyl)-1,4-diazabicyclo[2.2.2]octan-1-ium] gave an EC50 on GPR40 of 2.04 nM. Also, in series [1], the Cl was found to be 0.67 ml/mL/kg, the AUC was determined as 18.5 µM·h, the half-life was 7.2 h and the Vd worked out at 0.36 L/kg. In series [1], the Cmax worked out at 37 nM, the Tmax turned out to be 6.7 h and the bioavailability is 0.34%.

In the case of `COc1ccc(C(=O)N(CC(C)(C)CCCCCCCCCCCCCCCCCC(=O)NCCC[N+](C)(CC(=O)NCCN)CC(=O)NCCN)c2cccc(C)n2)c(N2CCC(COc3cc([C@@H](CC(=O)O)C4CC4)ccn3)CC2)c1` [Example 12], the response at GPR40 was half-maximal at 0.17 nM (EC50). In series [1], the Cl is 0.15 ml/mL/kg, the AUC stood at 33.9 µM·h, the half-life was 8.9 h and the Vd worked out at 0.1 L/kg. For the same compound, in series [1], the concentration peaked (Cmax) at 80.7 nM, the Tmax is 5.3 h and the bioavailability came to 0.17%.

Consider `COc1ccc(C(=O)N(CC(C)(C)CCCCCCCCCCCCCCCCCC(=O)NCC[N+](C)(CCCC(=O)NCCN)CCCC(=O)NCCN)c2cccc(C)n2)c(N2CCC(COc3cc([C@@H](CC(=O)O)C4CC4)ccn3)CC2)c1` [Example 17], for which, in the series on C57BL/6 mice, the “% change in AUC over vehicle” value is listed as −26.9%. Besides, in series [1], the Cl is listed as 0.10 ml/mL/kg and the Vd is 0.08 L/kg. Also, the concentration at 6 h in series [2] was determined as 237 ± 2 ng/mL.

Turning to `COc1ccc(C(=O)N(CC(C)(C)CCCCCCCCCCCCCCCCCCCC(=O)NCC[N+](C)(CC(=O)NCCN)CC(=O)NCCN)c2cccc(C)n2)c(N2CCC(COc3cc([C@@H](CC(=O)O)C4CC4)ccn3)CC2)c1` [Example 4], a half-maximal response on GPR40 (EC50) required 2.14 nM. In series [1], the Cl is given as 0.22 ml/mL/kg, the AUC was 54.1 µM·h, the half-life was 8.2 h and the Vd is 0.14 L/kg. In addition, in series [1], the Cmax was 66.1 nM, the Tmax was 5.3 h and the bioavailability came out at 0.16%.

As to `COc1ccc(C(=O)N(CC(C)(C)CCCCCCCCCCCCCCCCCC(=O)NCCC[N+]23CCN(CC2)CC3)c2cccc(C)n2)c(N2CCC(COc3cc([C@@H](CC(=O)O)C4CC4)ccn3)CC2)c1` [Example 18, (S)-1-(3-(20-(2-(4-(((4-(2-carboxy-1-cyclopropylethyl)pyridin-2-yl)oxy)methyl)piperidin-1-yl)-4-methoxy-N-(6-methylpyridin-2-yl)benzamido)-19,19-dimethylicosanamido)propyl)-1,4-diazabicyclo[2.2.2]octan-1-ium TFA salt], a half-maximal effect on GPR40 (EC50) was put at 0.24 nM. Besides, the “% change in AUC over vehicle” value in the series on C57BL/6 mice is −26.4%. In addition, in series [1], the Cl amounted to 0.32 ml/mL/kg, the AUC amounted to 33.7 µM·h, the half-life is 5.1 h and the Vd stood at 0.11 L/kg. Moreover, in series [1], the highest level (Cmax) was 42 nM, the Tmax was determined as 4 h and the bioavailability was 0.15%. Further, the concentration at 6 h in series [2] came to 274 ± 99 ng/mL.

For the compound `COc1ccc(C(=O)N(CC(C)(C)CCCCCCCCCCCCCCCCCCCC(=O)NCCCN(CC(=O)O)CC(=O)O)c2cccc(C)n2)c(N2CCC(COc3cc([C@@H](CC(=O)O)C4CC4)ccn3)CC2)c1` [Example 13], the EC50 at GPR40 came out at 0.76 nM. Also, in series [1], the Cl is recorded as 0.14 ml/mL/kg, the AUC was 88.9 µM·h, the half-life was 6.5 h and the Vd was found to be 0.07 L/kg. For the same compound, in series [1], the Cmax stood at 268 nM, the Tmax came out at 8 h and the bioavailability is 0.52%.

In turn, `COc1ccc(C(=O)N(CC(C)(C)CCCCCCCCCCCCCCCCCCCC(=O)NCCC[N+](C)(CC(=O)[O-])CC(=O)O)c2cccc(C)n2)c(N2CCC(COc3cc([C@@H](CC(=O)O)C4CC4)ccn3)CC2)c1` (stereo partly shown) [Example 14] showed an EC50 at GPR40 of 0.63 nM. In addition, in series [1], the Cl was determined as 0.20 ml/mL/kg, the AUC was determined as 68 µM·h, the half-life is 6.7 h and the Vd was 0.09 L/kg. Besides, in series [1], the Cmax worked out at 164 nM, the time of peak concentration (Tmax) came out at 8 h and the bioavailability stood at 0.37%.
